Source: PubChem BioAssay (NCI)
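How tested: cells in 96-well plates exposed to compound for 48 hours at five concentrations. TGI denotes the concentration required for complete inhibition of growth.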

Each compound was assayed on COLO 205 colon (assay: NCI-60 cell line screen, 48 h).

SMILES | TGI
CN(C(=O)c1ccc([N+](=O)[O-])cc1)c1ccccc1 | > 100 µM
O=[N+]([O-])c1cccc(C2=NOC(C3CCCCC3)C2)c1 (centres undefined) | > 100 µM
Cc1ccc(C)c(N2C/C(=N\NC(=O)CC#N)C(c3nc4ccccc4s3)C(=O)C2=O)c1 (centres undefined) | > 100 µM
CCOCN1COCN(C)C1=O | > 100 µM
O=C1Sc2ccccc2C(=O)N2CSCC12 (centres undefined) | > 100 µM
O=C(CN(c1ccccc1)c1ccccc1)N1c2ccccc2C2C=CC=CC21 (centres undefined) | 24.7 µM

The compounds below were run on SR leukemia (assay: NCI-60 cell line screen, 48 h).

SMILES | TGI
Cc1ccc(C)c(N2C/C(=N\NC(=O)CC#N)C(c3nc4ccccc4s3)C(=O)C2=O)c1 (centres undefined) | > 100 µM
O=C1Sc2ccccc2C(=O)N2CSCC12 (centres undefined) | > 100 µM
O=C(CN(c1ccccc1)c1ccccc1)N1c2ccccc2C2C=CC=CC21 (centres undefined) | > 21.4 µM

These compounds were tested on K-562 leukemia (assay: NCI-60 cell line screen, 48 h).

SMILES | TGI
CC(C)CCC[C@@H](C)C1CCC2[C@@H]3CC=C4C[C@@H](C(=O)NCCN(C)C)CC[C@]4(C)C3CC[C@@]21C (some centres undefined) | > 100 µM
CN(C(=O)c1ccc([N+](=O)[O-])cc1)c1ccccc1 | > 10 µM
O=[N+]([O-])c1cccc(C2=NOC(C3CCCCC3)C2)c1 (centres undefined) | > 100 µM
CCOCN1COCN(C)C1=O | > 100 µM
O=C1Sc2ccccc2C(=O)N2CSCC12 (centres undefined) | > 100 µM
O=C(CN(c1ccccc1)c1ccccc1)N1c2ccccc2C2C=CC=CC21 (centres undefined) | > 51.5 µM

The compounds below were run on SF-295 CNS (assay: NCI-60 cell line screen, 48 h).

SMILES | TGI
CC(C)CCC[C@@H](C)C1CCC2[C@@H]3CC=C4C[C@@H](C(=O)NCCN(C)C)CC[C@]4(C)C3CC[C@@]21C (some centres undefined) | > 100 µM
CN(C(=O)c1ccc([N+](=O)[O-])cc1)c1ccccc1 | > 100 µM
O=[N+]([O-])c1cccc(C2=NOC(C3CCCCC3)C2)c1 (centres undefined) | > 100 µM
Cc1ccc(C)c(N2C/C(=N\NC(=O)CC#N)C(c3nc4ccccc4s3)C(=O)C2=O)c1 (centres undefined) | > 100 µM
CCOCN1COCN(C)C1=O | > 100 µM
O=C1Sc2ccccc2C(=O)N2CSCC12 (centres undefined) | > 100 µM
O=C(CN(c1ccccc1)c1ccccc1)N1c2ccccc2C2C=CC=CC21 (centres undefined) | 58.8 µM

What follows are compounds tested on RXF-631 renal (assay: NCI-60 cell line screen, 48 h).

SMILES | TGI
CN(C(=O)c1ccc([N+](=O)[O-])cc1)c1ccccc1 | > 100 µM
O=[N+]([O-])c1cccc(C2=NOC(C3CCCCC3)C2)c1 (centres undefined) | > 100 µM
CCOCN1COCN(C)C1=O | > 100 µM

What follows are compounds tested on SK-MEL-5 melanoma (assay: NCI-60 cell line screen, 48 h).

SMILES | TGI
O=[N+]([O-])c1cccc(C2=NOC(C3CCCCC3)C2)c1 (centres undefined) | > 100 µM
Cc1ccc(C)c(N2C/C(=N\NC(=O)CC#N)C(c3nc4ccccc4s3)C(=O)C2=O)c1 (centres undefined) | > 100 µM
CCOCN1COCN(C)C1=O | > 100 µM
O=C1Sc2ccccc2C(=O)N2CSCC12 (centres undefined) | > 100 µM
O=C(CN(c1ccccc1)c1ccccc1)N1c2ccccc2C2C=CC=CC21 (centres undefined) | 29.9 µM

The compounds below were run on SW-620 colon (assay: NCI-60 cell line screen, 48 h).

SMILES | TGI
CC(C)CCC[C@@H](C)C1CCC2[C@@H]3CC=C4C[C@@H](C(=O)NCCN(C)C)CC[C@]4(C)C3CC[C@@]21C (some centres undefined) | > 100 µM
CN(C(=O)c1ccc([N+](=O)[O-])cc1)c1ccccc1 | > 100 µM
O=[N+]([O-])c1cccc(C2=NOC(C3CCCCC3)C2)c1 (centres undefined) | > 100 µM
Cc1ccc(C)c(N2C/C(=N\NC(=O)CC#N)C(c3nc4ccccc4s3)C(=O)C2=O)c1 (centres undefined) | > 100 µM
CCOCN1COCN(C)C1=O | > 100 µM
O=C1Sc2ccccc2C(=O)N2CSCC12 (centres undefined) | > 100 µM
O=C(CN(c1ccccc1)c1ccccc1)N1c2ccccc2C2C=CC=CC21 (centres undefined) | > 53.5 µM

These compounds were tested on SF-539 CNS (assay: NCI-60 cell line screen, 48 h).

SMILES | TGI
CC(C)CCC[C@@H](C)C1CCC2[C@@H]3CC=C4C[C@@H](C(=O)NCCN(C)C)CC[C@]4(C)C3CC[C@@]21C (some centres undefined) | 46 µM
CN(C(=O)c1ccc([N+](=O)[O-])cc1)c1ccccc1 | > 100 µM
O=[N+]([O-])c1cccc(C2=NOC(C3CCCCC3)C2)c1 (centres undefined) | > 100 µM
CCOCN1COCN(C)C1=O | > 100 µM
O=C1Sc2ccccc2C(=O)N2CSCC12 (centres undefined) | > 100 µM
O=C(CN(c1ccccc1)c1ccccc1)N1c2ccccc2C2C=CC=CC21 (centres undefined) | 43.8 µM

The compounds below were run on DMS 114 small cell lung (assay: NCI-60 cell line screen, 48 h).

SMILES | TGI
CC(C)CCC[C@@H](C)C1CCC2[C@@H]3CC=C4C[C@@H](C(=O)NCCN(C)C)CC[C@]4(C)C3CC[C@@]21C (some centres undefined) | 38.1 µM
CN(C(=O)c1ccc([N+](=O)[O-])cc1)c1ccccc1 | > 10 µM
O=[N+]([O-])c1cccc(C2=NOC(C3CCCCC3)C2)c1 (centres undefined) | > 100 µM
Cc1ccc(C)c(N2C/C(=N\NC(=O)CC#N)C(c3nc4ccccc4s3)C(=O)C2=O)c1 (centres undefined) | > 100 µM
O=C1Sc2ccccc2C(=O)N2CSCC12 (centres undefined) | > 100 µM
O=C(CN(c1ccccc1)c1ccccc1)N1c2ccccc2C2C=CC=CC21 (centres undefined) | 23.1 µM

These compounds were tested on SK-OV-3 ovarian (assay: NCI-60 cell line screen, 48 h).

SMILES | TGI
CC(C)CCC[C@@H](C)C1CCC2[C@@H]3CC=C4C[C@@H](C(=O)NCCN(C)C)CC[C@]4(C)C3CC[C@@]21C (some centres undefined) | > 100 µM
CN(C(=O)c1ccc([N+](=O)[O-])cc1)c1ccccc1 | > 100 µM
O=[N+]([O-])c1cccc(C2=NOC(C3CCCCC3)C2)c1 (centres undefined) | > 100 µM
Cc1ccc(C)c(N2C/C(=N\NC(=O)CC#N)C(c3nc4ccccc4s3)C(=O)C2=O)c1 (centres undefined) | > 100 µM
CCOCN1COCN(C)C1=O | > 100 µM
O=C1Sc2ccccc2C(=O)N2CSCC12 (centres undefined) | > 100 µM
O=C(CN(c1ccccc1)c1ccccc1)N1c2ccccc2C2C=CC=CC21 (centres undefined) | > 56.4 µM

What follows are compounds tested on MOLT-4 leukemia (assay: NCI-60 cell line screen, 48 h).

SMILES | TGI
CC(C)CCC[C@@H](C)C1CCC2[C@@H]3CC=C4C[C@@H](C(=O)NCCN(C)C)CC[C@]4(C)C3CC[C@@]21C (some centres undefined) | > 100 µM
CN(C(=O)c1ccc([N+](=O)[O-])cc1)c1ccccc1 | > 100 µM
O=[N+]([O-])c1cccc(C2=NOC(C3CCCCC3)C2)c1 (centres undefined) | > 100 µM
Cc1ccc(C)c(N2C/C(=N\NC(=O)CC#N)C(c3nc4ccccc4s3)C(=O)C2=O)c1 (centres undefined) | > 100 µM
O=C1Sc2ccccc2C(=O)N2CSCC12 (centres undefined) | > 100 µM
O=C(CN(c1ccccc1)c1ccccc1)N1c2ccccc2C2C=CC=CC21 (centres undefined) | > 22.6 µM

The compounds below were run on SK-MEL-2 melanoma (assay: NCI-60 cell line screen, 48 h).

SMILES | TGI
CC(C)CCC[C@@H](C)C1CCC2[C@@H]3CC=C4C[C@@H](C(=O)NCCN(C)C)CC[C@]4(C)C3CC[C@@]21C (some centres undefined) | 23.6 µM
O=[N+]([O-])c1cccc(C2=NOC(C3CCCCC3)C2)c1 (centres undefined) | > 100 µM
Cc1ccc(C)c(N2C/C(=N\NC(=O)CC#N)C(c3nc4ccccc4s3)C(=O)C2=O)c1 (centres undefined) | > 100 µM
CCOCN1COCN(C)C1=O | > 100 µM
O=C1Sc2ccccc2C(=O)N2CSCC12 (centres undefined) | > 100 µM
O=C(CN(c1ccccc1)c1ccccc1)N1c2ccccc2C2C=CC=CC21 (centres undefined) | 38.8 µM

Each compound was assayed on MALME-3M melanoma (assay: NCI-60 cell line screen, 48 h).

SMILES | TGI
CC(C)CCC[C@@H](C)C1CCC2[C@@H]3CC=C4C[C@@H](C(=O)NCCN(C)C)CC[C@]4(C)C3CC[C@@]21C (some centres undefined) | > 100 µM
CN(C(=O)c1ccc([N+](=O)[O-])cc1)c1ccccc1 | > 100 µM
O=[N+]([O-])c1cccc(C2=NOC(C3CCCCC3)C2)c1 (centres undefined) | > 100 µM
Cc1ccc(C)c(N2C/C(=N\NC(=O)CC#N)C(c3nc4ccccc4s3)C(=O)C2=O)c1 (centres undefined) | > 100 µM
CCOCN1COCN(C)C1=O | > 100 µM
O=C1Sc2ccccc2C(=O)N2CSCC12 (centres undefined) | > 100 µM
O=C(CN(c1ccccc1)c1ccccc1)N1c2ccccc2C2C=CC=CC21 (centres undefined) | 47.1 µM

The compounds below were run on NCI-H23 lung (assay: NCI-60 cell line screen, 48 h).

SMILES | TGI
CC(C)CCC[C@@H](C)C1CCC2[C@@H]3CC=C4C[C@@H](C(=O)NCCN(C)C)CC[C@]4(C)C3CC[C@@]21C (some centres undefined) | 52.1 µM
CN(C(=O)c1ccc([N+](=O)[O-])cc1)c1ccccc1 | > 100 µM
O=[N+]([O-])c1cccc(C2=NOC(C3CCCCC3)C2)c1 (centres undefined) | > 100 µM
Cc1ccc(C)c(N2C/C(=N\NC(=O)CC#N)C(c3nc4ccccc4s3)C(=O)C2=O)c1 (centres undefined) | > 100 µM
CCOCN1COCN(C)C1=O | > 100 µM
O=C1Sc2ccccc2C(=O)N2CSCC12 (centres undefined) | > 100 µM
O=C(CN(c1ccccc1)c1ccccc1)N1c2ccccc2C2C=CC=CC21 (centres undefined) | 53.5 µM

These compounds were tested on SNB-19 CNS (assay: NCI-60 cell line screen, 48 h).

SMILES | TGI
CC(C)CCC[C@@H](C)C1CCC2[C@@H]3CC=C4C[C@@H](C(=O)NCCN(C)C)CC[C@]4(C)C3CC[C@@]21C (some centres undefined) | > 100 µM
CN(C(=O)c1ccc([N+](=O)[O-])cc1)c1ccccc1 | > 100 µM
Cc1ccc(C)c(N2C/C(=N\NC(=O)CC#N)C(c3nc4ccccc4s3)C(=O)C2=O)c1 (centres undefined) | > 100 µM
CCOCN1COCN(C)C1=O | > 100 µM
O=C1Sc2ccccc2C(=O)N2CSCC12 (centres undefined) | > 100 µM
O=C(CN(c1ccccc1)c1ccccc1)N1c2ccccc2C2C=CC=CC21 (centres undefined) | 38.1 µM

The compounds below were run on TK-10 renal (assay: NCI-60 cell line screen, 48 h).

SMILES | TGI
CC(C)CCC[C@@H](C)C1CCC2[C@@H]3CC=C4C[C@@H](C(=O)NCCN(C)C)CC[C@]4(C)C3CC[C@@]21C (some centres undefined) | 69.8 µM
O=[N+]([O-])c1cccc(C2=NOC(C3CCCCC3)C2)c1 (centres undefined) | > 100 µM
Cc1ccc(C)c(N2C/C(=N\NC(=O)CC#N)C(c3nc4ccccc4s3)C(=O)C2=O)c1 (centres undefined) | > 100 µM
CCOCN1COCN(C)C1=O | > 100 µM
O=C1Sc2ccccc2C(=O)N2CSCC12 (centres undefined) | > 100 µM
O=C(CN(c1ccccc1)c1ccccc1)N1c2ccccc2C2C=CC=CC21 (centres undefined) | > 57.2 µM
